This note sets out measurements from patent US20110060013A1, “THIAZOLES AND PYRAZOLES USEFUL AS KINASE INHIBITORS” (VERTEX PHARMACEUTICALS INCORPORATED, priority 2007, published 2011).

The target in one experiment is T1, Aurora-2 (Aurora A) (Homo sapiens, UniProt O14965).
T1 sequence (O14965 1-403): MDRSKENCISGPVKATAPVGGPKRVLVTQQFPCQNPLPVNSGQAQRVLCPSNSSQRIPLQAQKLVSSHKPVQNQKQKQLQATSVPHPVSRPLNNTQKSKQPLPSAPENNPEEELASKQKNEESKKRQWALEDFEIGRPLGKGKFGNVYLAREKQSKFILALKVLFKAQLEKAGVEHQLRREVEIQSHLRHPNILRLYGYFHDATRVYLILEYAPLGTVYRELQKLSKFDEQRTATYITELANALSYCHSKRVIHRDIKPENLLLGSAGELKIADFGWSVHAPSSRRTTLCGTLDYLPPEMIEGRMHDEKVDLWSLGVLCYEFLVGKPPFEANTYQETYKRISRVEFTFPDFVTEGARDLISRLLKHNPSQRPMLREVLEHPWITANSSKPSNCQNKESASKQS
The experiment is described as follows: Aurora-2 (Aurora A) inhibition, coupled enzyme assay. In kind it is biochemical. As to conditions: 400 μM ATP, 570 μM Kemptide, 40 nM Aurora-2, 30° C. How it is done:
Compounds were screened for their ability to inhibit Aurora-2 using a standard coupled enzyme assay (Fox et al., Protein Sci., (1998) 7, 2249). Assays were carried out in a mixture of 100 mM Hepes (pH7.5), 10 mM MgCl2, 1 mM DTT, 25 mM NaCl, 2.5 mM phosphoenolpyruvate, 300 μM NADH, 30 μg/ml pyruvate kinase and 10 μg/ml lactate dehydrogenase. Final substrate concentrations in the assay were 400 μM ATP (Sigma Chemicals) and 570 μM peptide (Kemptide, American Peptide, Sunnyvale, Calif.). Assays were carried out at 30° C. and in the presence of 40 nM Aurora-2.
An assay stock buffer solution was prepared containing all of the reagents listed above, with the exception of Aurora-2 and the test compound of interest. 55 μl of the stock solution was placed in a 96 well plate followed by addition of 2 μl of DMSO stock containing serial dilutions of the test compound (typically starting from a final concentration of 7.5 μM). The plate was preincubated for 10 minutes at 30° C. and the reaction initiated by addition of 10 μl of Aurora-2. Initial reaction rates were determined with a Molecular Devices SpectraMax Plus plate reader over a 10 minute time course. IC50 and Ki data were calculated from non-linear regression analysis using the Prism software package (GraphPad Prism version 3.0cx for Macintosh, GraphPad Software, San Diego Calif., USA).

For the next experiment, the target named is Aurora-1 (Aurora B) (Homo sapiens, UniProt Q96GD4). The experiment is described as follows: Aurora-1 (Aurora B) inhibition assay (radiometric). In kind it is biochemical. As to conditions: 800 μM [γ-33P]-ATP, Kemptide, 25° C., 3 hours. How it is done: An assay buffer solution was prepared which consisted of 25 mM HEPES (pH 7.5), 10 mM MgCl2, 0.1% BSA and 10% glycerol. A 22 nM Aurora-B solution, also containing 1.7 mM DTT and 1.5 mM Kemptide (LRRASLG), was prepared in assay buffer. To 22 μL of the Aurora-B solution, in a 96-well plate, was added 2 μl of a compound stock solution in DMSO and the mixture allowed to equilibrate for 10 minutes at 25° C. The enzyme reaction was initiated by the addition of 16 μl stock [γ-^33P]-ATP solution (˜20 nCi/μL) prepared in assay buffer, to a final assay concentration of 800 μM. The reaction was stopped after 3 hours by the addition of 16 μL 500 mM phosphoric acid and the levels of ^33P incorporation into the peptide substrate were determined by the following method.
A phosphocellulose 96-well plate (Millipore, Cat no. MAPHNOB50) was pre-treated with 100 μL of a 100 mM phosphoric acid prior to the addition of the enzyme reaction mixture (40 μL). […] Levels of non-enzyme catalyzed background radioactivity were determined by adding 16 μL of the 500 mM phosphoric acid to control wells, containing all assay components (which acts to denature the enzyme), prior to the addition of the [γ-^33P]-ATP solution. Levels of enzyme catalyzed ^33P incorporation were calculated by subtracting mean background counts from those measured at each inhibitor concentration. […]

Chain of Aurora-1 (Aurora B) (Q96GD4 whole entry): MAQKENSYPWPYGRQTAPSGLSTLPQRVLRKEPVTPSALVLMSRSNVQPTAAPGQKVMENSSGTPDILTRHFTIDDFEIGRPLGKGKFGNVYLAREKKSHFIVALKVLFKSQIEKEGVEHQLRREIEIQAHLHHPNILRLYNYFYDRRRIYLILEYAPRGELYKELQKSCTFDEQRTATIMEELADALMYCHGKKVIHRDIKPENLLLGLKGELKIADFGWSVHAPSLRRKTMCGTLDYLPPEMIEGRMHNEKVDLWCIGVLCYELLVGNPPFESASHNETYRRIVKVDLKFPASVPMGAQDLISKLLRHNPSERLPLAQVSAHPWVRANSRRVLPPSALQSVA

Take `Cc1cnc(Nc2cc(N3CC[C@H](F)C3)cc(Sc3ccc(NC(=O)C4CC4)cc3)n2)s1` [Compound 1, (S)-N-(4-(4-(3-Fluoropyrrolidin-1-yl)-6-(5-methylthiazol-2-ylamino)pyridin-2-ylthio)phenyl)cyclopropanecarboxamide]: the Ki at Aurora-2 (Aurora A) is < 0.1 µM; on Aurora-1 (Aurora B) it was < 1 µM.

With `Cc1cc(Nc2cc(N3CC[C@H](F)C3)cc(Sc3ccc(NC(=O)C4CC4)cc3)n2)[nH]n1` [Compound 2, (S)-N-(4-(4-(3-Fluoropyrrolidin-1-yl)-6-(3-methyl-1H-pyrazol-5-ylamino)pyridin-2-ylthio)phenyl)cyclopropanecarboxamide], the results for the Ki at Aurora-2 (Aurora A) and at Aurora-1 (Aurora B) were < 0.1 µM and < 1 µM, respectively.
